Like-named read-outs stand apart in the source and are kept apart here.
Experiments:
[1] = molecular target: T1, human FXR-LBD (GST-FXR-LBD) (Homo sapiens, UniProt Q96RI1); assay: HTRF coactivator recruitment assay, antagonist mode (in the presence of 50 μM CDCA); type: biochemical
T1 construct: the human FXR-LBD (residues 234–472) was expressed as a GST fusion protein GST-FXR-LBD; made in house; host or cells: E. coli BL21(DE3)
T1 sequence (Q96RI1 234-472 isoform Q96RI1-2): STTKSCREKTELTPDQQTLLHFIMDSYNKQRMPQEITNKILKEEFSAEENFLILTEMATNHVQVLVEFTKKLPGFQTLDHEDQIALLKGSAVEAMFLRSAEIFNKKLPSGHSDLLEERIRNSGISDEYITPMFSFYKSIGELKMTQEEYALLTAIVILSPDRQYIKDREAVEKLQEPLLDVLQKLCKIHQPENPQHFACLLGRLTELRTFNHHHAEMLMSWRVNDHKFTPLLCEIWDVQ

[2] = Analysis of TPHP in mice (serum, liver, ileum) by UPLC-MS/MS; type: in vivo, C57BL/6N mice; settings: mouse
Procedure: Male C57BL/6N mice (8 wk of age) were purchased from Beijing Vital River Laboratory Inc. and acclimated to the environment for 2 wk before they were used for experiments. The environment was maintained at 22°C, in a 12-h light/dark cycle with 50%–60% relative humidity and fed standard chow diets. Because the male mice are more sensitive to metabolic disease than female mice and the estrous cycle of female mice may induce variability to the metabolic phenotypes,[50] only male mice were used in this study. Animals were randomly assigned to control or TPHP treatment groups (five mice per group). Mice were exposed to corn oil (control) purchased from Sigma-Aldrich (C8267) or TPHP (dissolved in corn oil) at 10mg/kg or 50mg/kg body weight (BW) by daily oral gavage for 35 d. The administered volume was 5mL/kg BW. The TPHP corn oil solutions for administration were prepared by dissolving the TPHP in corn oil, and the solutions were stored at −20°C and freshly prepared each week. BW was measured every other day during the dosing period. At the end of experiments, the mice were anesthetized with isoflurane, then blood was collected from the retro-orbital sinus via orbital puncture, and then the mice were euthanized by cervical dislocation. The liver was isolated, weighted, and divided into three fractions: one fraction was fixed with 4% neutral-buffered formalin for Oil Red staining; another fraction was frozen in liquid nitrogen and stored at −80°C for the BA targeted analysis, lipidomic analysis, and qPCR analysis; the remaining fraction was embedded with 3% carboxymethylcellulose (CMC) for MSI analysis. The ileum was also isolated, weighted, and stored at −80°C for the BA targeted analysis and qRT-PCR analysis. Cecal contents were collected from the cecum of mice for the 16S rRNA gene sequencing analysis. Animal study protocols were approved by the Animal Care and Use Committee of Peking University (approval number: Urban-WanY-1).
Samples of serum ( 100μL ) and freeze-dried liver ( 50mg ) and ileum tissues ( 10mg ) were spiked with 10μL of 100 ng/mL TPHP- d15 (CDAA-412134D15; ANPEL) and extracted with 2mL of ethyl acetate for 10 min on an orbital shaker. After centrifuging at 4,000×g for 10 min, the supernatants were transferred to glass tubes. The extraction process was performed twice, and the supernatants were combined, concentrated to near dryness under a gentle stream of nitrogen, and reconstituted in 1mL of n -hexane. Then, the extracts were loaded on a Sep-Pak Aminopropyl ( NH2 ) cartridge (6cc, 500mg; Waters) preconditioned with 6mL of dichloromethane, 6mL of dichloromethane/n-hexane (1:4, v/v), and 6mL of n -hexane. After being rinsed with 6mL of n -hexane and 6mL of dichloromethane/n-hexane (1:4, v/v), the target analytes were eluted with 3mL of dichloromethane. The eluates were dried under a gentle stream of nitrogen and reconstituted in 100μL of methanol.
Analysis of TPHP was performed on a Waters Xevo TQ-XS Triple Quadrupole mass spectrometer coupled with the Waters ACQUITY UPLC I-Class System. An InfinityLab Poroshell C18 column ( 100×2.1mm , 1.9μm ) was used. The injection volume was 5μL . Ultrapure water (0.1% formic acid) (A) and acetonitrile (B) were used as the mobile phases. The elution gradient was performed as follows: 0–3 min, 50% B; 3–6 min, 50%−70% B; 6–6.2 min, 70%−100% B; 6.2–8.5 min, 100%−100% B; 8.5–8.6 min, 100%−50% B; 8.6–10 min, 50% B. The rate of flow was 0.3mL/min . The column temperature was maintained at 40°C. The mass spectrometer was equipped with an ESI source and operated in multiple reaction monitoring (MRM) and positive ion mode. A capillary voltage of 3.0 kV , a source temperature of 150°C, and a desolvation temperature of 500°C were used. Desolvation gas and the cone gas flow were set as 1,200 liters/h and 150 liters/h , respectively, and the collision gas was 0.15mL/min . […] The matrix effects were 114.9±4.3% and 118.4±0.5% for the serum and tissues, respectively.

[3] = read-out: Relative antagonist activity (%)

Question: Which results are given for `O=P(Oc1ccccc1)(Oc1ccccc1)Oc1ccccc1` [TPHP, triphenyl phosphate]?
Answer: activity at 1.95 µM ([1]; 1.95 μM compound + 50 μM CDCA, replicates, read-out: Relative antagonist activity (%)): 97.2%; activity at 3.9 µM ([1]; 3.90 μM compound + 50 μM CDCA, replicates, read-out: Relative antagonist activity (%)): 97.3%; activity at 31.25 µM ([1]; 31.25 μM compound + 50 μM CDCA, replicates, read-out: Relative antagonist activity (%)): 87.3%; Relative activity, antagonist mode ([1]; 50 μM compound in the presence of 50 μM CDCA, standardized against positive control DY268 (50 μM = 100%)): 42.69%; activity at 62.5 µM ([1]; 62.50 μM compound + 50 μM CDCA, replicates, read-out: Relative antagonist activity (%)): 76.5%; activity at 250 µM ([1]; 250.00 μM compound + 50 μM CDCA, standardized to DMSO and 50 μM CDCA, replicates, read-out: Relative antagonist activity (%)): 58.1%; IC50 ([1]; read-out: IC50, inhibition of CDCA-induced coactivator recruitment to FXR): 70.6 µM; activity at 0.98 µM [1, 3]: 99.2%; activity at 7.8 µM [1, 3]: 95.9%; activity at 125 µM [1, 3]: 64.3%; activity at […] [1, 3]: 90.6%; concentration at 35 d ([2]; male, C57BL/6N, ileum, TPHP-H: 50 mg/kg daily oral gavage 35 d, read-out: TPHP concentration in ileum): 13.2 ± 0.91 ng/g; concentration at 35 d ([2]; male, C57BL/6N, ileum, TPHP-L: 10 mg/kg daily oral gavage 35 d, read-out: TPHP concentration in ileum): 7.24 ± 1.33 ng/g; concentration at 35 d ([2]; male, C57BL/6N, liver, TPHP-H: 50 mg/kg daily oral gavage 35 d, read-out: TPHP concentration in liver): 12.9 ± 3.31 ng/g; concentration at 35 d ([2]; male, C57BL/6N, liver, TPHP-L: 10 mg/kg daily oral gavage 35 d, read-out: TPHP concentration in liver): 5.33 ± 1.91 ng/g; concentration at 35 d ([2]; serum, TPHP-H: 50 mg/kg daily oral gavage 35 d, male C57BL/6N mice, read-out: TPHP concentration in serum): 0.79 ± 0.36 ng/mL; concentration at 35 d ([2]; serum, TPHP-L: 10 mg/kg daily oral gavage 35 d, male C57BL/6N mice, read-out: TPHP concentration in serum): 0.32 ± 0.03 ng/mL

From PMC12010937, “Evaluation of FXR Activity in Pollutants Identified in Sewage Sludge and Subsequent in Vitro and in Vivo Characterization of Metabolic Effects of Triphenyl Phosphate” (Environmental Health Perspectives, 2025)
